# Results as given in patent US9963467B2, “Boronic acid derivatives and therapeutic uses thereof” (Rempex Pharmaceuticals, Inc., priority 2014, dated 2018).
# Assays:
# ec302 (TEM-10) [1] = test: Tigemonam potentiation (MPC@4), ec302; assay type: cell-based
# SHV-12 = SHV-12 (Klebsiella pneumoniae, UniProt P0AD64, E235K/G234S/L31Q); test: Ki, nitrocefin cleavage by purified enzyme, SHV-12; assay type: biochemical; settings: nitrocefin reporter substrate; read-out: Ki (SHV-12, NCF)
# Method in brief: (§1)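 Readout: nitrocefin hydrolysis, A490 recorded every 10 sec over 10 min. Enzyme and inhibitor (varied concentrations) preincubated 10 min, RT, in reaction buffer before substrate addition.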
# KP1005 (CTX-M-14) [2] = test: Tigemonam potentiation (MPC@4), KP1005; assay type: cell-based; settings: BLI with tigemonam at 4 μg/mL
# P99 = P99 (Enterobacter cloacae, UniProt P05364); test: Ki, nitrocefin cleavage by purified enzyme, P99; assay type: biochemical; settings: nitrocefin reporter substrate; read-out: Ki (P99, NCF)
# Method in brief: as §1
# ECL1002 [3] = test: Aztreonam potentiation (MPC@4), ECL1002; assay type: cell-based; settings: BLI with aztreonam at 4 μg/mL
# EC1010 (CMY-6) [4] = test: Tigemonam potentiation (MPC@4), EC1010; assay type: cell-based; settings: BLI with tigemonam at 4 μg/mL
# KP1086 (OXA-48) = test: Biapenem potentiation (MPC@1), KP1086; settings: BLI with biapenem at 1 μg/mL
# CTX-M-14 = CTX-M-14 (Escherichia coli, UniProt Q9L5C7); test: Ki, nitrocefin cleavage by purified enzyme, CTX-M-14; assay type: biochemical; settings: nitrocefin reporter substrate; read-out: Ki (CTX-M-14, NCF)
# Method in brief: as §1
# EC1010 (CMY-6) [5] = test: organism not typed; assay type: cell-based
# ec308 (SHV-5) = test: Tigemonam potentiation (MPC@4), ec308; assay type: cell-based
# KP1004 (KPC-2) [6] = test: Biapenem potentiation (MPC@1), KP1004; settings: BLI with biapenem at 1 μg/mL
# KP1009 (CTX-M-15) [7] = test: Tigemonam potentiation (MPC@4), KP1009; assay type: cell-based; settings: BLI with tigemonam at 4 μg/mL
# ec302 (TEM-10) [8] = test: Aztreonam potentiation (MPC@4), ec302; assay type: cell-based; settings: BLI with aztreonam at 4 μg/mL
# Pa AmpC = Pa AmpC (Pseudomonas aeruginosa, UniProt P24735); test: Ki, nitrocefin cleavage by purified enzyme, Pa AmpC; assay type: biochemical; settings: nitrocefin reporter substrate; read-out: Ki (Pa AmpC, NCF)
# Method in brief: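 Enzyme–inhibitor mixtures, spanning various inhibitor concentrations, were held 10 min at room temperature in reaction buffer prior to nitrocefin addition. Spectrophotometric monitoring of substrate cleavage at 490 nm then ran 10 min at 10-sec intervals to yield Ki.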
# KP1004 (KPC-2) [9] = test: Aztreonam potentiation (MPC@4), KP1004; assay type: cell-based; settings: BLI with aztreonam at 4 μg/mL
# OXA-48 = OXA-48 (Klebsiella pneumoniae, UniProt Q6XEC0); test: Ki, nitrocefin cleavage by purified enzyme, OXA-48; assay type: biochemical; settings: nitrocefin reporter substrate; read-out: Ki (OXA-48, NCF)
# Method in brief: as §1
# KP1010 (SHV-12) = test: Tigemonam potentiation (MPC@4), KP1010; assay type: cell-based
# KPC-2 = KPC-2 (Klebsiella pneumoniae, UniProt Q9F663); test: Ki, nitrocefin cleavage by purified enzyme, KPC-2; assay type: biochemical; settings: nitrocefin reporter substrate; read-out: Ki (KPC-2, NCF)
# Method in brief: as §1
# ECL1002 [10] = test: Tigemonam potentiation (MPC@4), ECL1002; assay type: cell-based; settings: BLI with tigemonam at 4 μg/mL
# KP1009 (CTX-M-15) [11] = test: organism not typed; assay type: cell-based
# KP1005 (CTX-M-14) [12] = test: Aztreonam potentiation (MPC@4), KP1005; assay type: cell-based; settings: BLI with aztreonam at 4 μg/mL
# Sequence of SHV-12 (P0AD64 22-286 L31Q/G234S/E235K): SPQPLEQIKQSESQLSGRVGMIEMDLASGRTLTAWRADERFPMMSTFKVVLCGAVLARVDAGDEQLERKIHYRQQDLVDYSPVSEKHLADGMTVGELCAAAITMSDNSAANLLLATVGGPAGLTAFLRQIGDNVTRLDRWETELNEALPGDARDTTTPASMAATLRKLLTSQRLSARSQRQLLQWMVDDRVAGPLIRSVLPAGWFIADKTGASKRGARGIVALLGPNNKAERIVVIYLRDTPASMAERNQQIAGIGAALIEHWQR
# Sequence of P99 (P05364 21-381): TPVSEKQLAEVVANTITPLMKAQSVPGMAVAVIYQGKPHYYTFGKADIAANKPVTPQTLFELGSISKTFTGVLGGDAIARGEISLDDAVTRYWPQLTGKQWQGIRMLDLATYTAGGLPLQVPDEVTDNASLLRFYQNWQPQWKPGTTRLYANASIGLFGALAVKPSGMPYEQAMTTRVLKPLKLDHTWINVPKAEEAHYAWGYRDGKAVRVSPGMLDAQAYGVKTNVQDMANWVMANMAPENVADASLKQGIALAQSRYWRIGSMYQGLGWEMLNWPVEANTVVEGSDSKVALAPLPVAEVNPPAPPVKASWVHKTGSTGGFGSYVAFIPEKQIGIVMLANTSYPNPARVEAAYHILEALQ
# Sequence of CTX-M-14 (Q9L5C7 29-291): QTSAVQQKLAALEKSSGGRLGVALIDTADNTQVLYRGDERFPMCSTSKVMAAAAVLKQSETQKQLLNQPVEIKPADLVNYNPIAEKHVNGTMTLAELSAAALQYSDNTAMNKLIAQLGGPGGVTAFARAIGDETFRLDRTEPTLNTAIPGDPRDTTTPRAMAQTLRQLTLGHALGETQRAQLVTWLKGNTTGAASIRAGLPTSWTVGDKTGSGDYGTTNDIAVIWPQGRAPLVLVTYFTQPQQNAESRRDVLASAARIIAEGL
# Sequence of OXA-48 (Q6XEC0 23-265, looked up, species assumed): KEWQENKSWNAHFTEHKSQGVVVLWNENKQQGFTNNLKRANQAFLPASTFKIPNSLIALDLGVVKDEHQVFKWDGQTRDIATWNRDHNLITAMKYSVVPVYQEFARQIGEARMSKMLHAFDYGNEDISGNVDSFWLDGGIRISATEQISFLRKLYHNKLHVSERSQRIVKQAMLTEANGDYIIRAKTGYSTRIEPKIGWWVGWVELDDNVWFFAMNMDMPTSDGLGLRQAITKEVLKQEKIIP
# Sequence of Pa AmpC (P24735 27-397): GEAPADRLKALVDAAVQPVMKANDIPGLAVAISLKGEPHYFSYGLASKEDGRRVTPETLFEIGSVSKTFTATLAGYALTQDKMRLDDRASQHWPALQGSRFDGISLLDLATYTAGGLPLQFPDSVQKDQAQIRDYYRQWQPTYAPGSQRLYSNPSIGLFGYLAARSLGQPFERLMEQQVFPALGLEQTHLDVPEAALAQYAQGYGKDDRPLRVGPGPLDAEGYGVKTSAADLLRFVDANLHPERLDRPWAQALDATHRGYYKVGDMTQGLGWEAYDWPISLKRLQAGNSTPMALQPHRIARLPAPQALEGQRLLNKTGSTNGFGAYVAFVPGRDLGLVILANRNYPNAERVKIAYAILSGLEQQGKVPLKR
# Sequence of KPC-2 (Q9F663 25-293, looked up, species assumed): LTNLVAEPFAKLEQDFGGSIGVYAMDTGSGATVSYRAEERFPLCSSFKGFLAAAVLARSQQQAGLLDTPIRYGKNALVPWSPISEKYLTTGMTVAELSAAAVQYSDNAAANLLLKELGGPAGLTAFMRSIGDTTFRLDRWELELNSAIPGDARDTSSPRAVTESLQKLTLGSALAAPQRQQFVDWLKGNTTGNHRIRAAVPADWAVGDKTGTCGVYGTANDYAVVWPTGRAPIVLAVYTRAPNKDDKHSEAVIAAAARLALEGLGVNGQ
SMILES,TIG MPC4 TEM-10 ec302 (ec302 (TEM-10) [1]),Ki (SHV-12) [nM],TIG MPC4 CTX-M-14 KP1005 (KP1005 (CTX-M-14) [2]),Ki (P99) [nM],AZT MPC4 ECL1002 (ECL1002 [3]),TIG MPC4 CMY-6 EC1010 (EC1010 (CMY-6) [4]),BPM MPC1 OXA-48 KP1086 (KP1086 (OXA-48)),Ki (CTX-M-14) [nM],AZT MPC4 CMY-6 EC1010 (EC1010 (CMY-6) [5]),TIG MPC4 SHV-5 ec308 (ec308 (SHV-5)),BPM MPC1 KP1004 KPC-2 (KP1004 (KPC-2) [6]),TIG MPC4 CTX-M-15 KP1009 (KP1009 (CTX-M-15) [7]),AZT MPC4 TEM-10 ec302 (ec302 (TEM-10) [8]),Ki (Pa AmpC) [nM],AZT MPC4 KPC-2 KP1004 (KP1004 (KPC-2) [9]),Ki (OXA-48) [nM],TIG MPC4 SHV-12 KP1010 (KP1010 (SHV-12)),Ki (KPC-2) [nM],TIG MPC4 ECL1002 (ECL1002 [10]),AZT MPC4 CTX-M-15 KP1009 (KP1009 (CTX-M-15) [11]),also measured
"CSCC(=O)N[C@H]1Cc2ccc(SCCO)c(C(=O)O)c2OB1O [Compound 23, (R)-2-hydroxy-7-(2-hydroxyethylthio)-3-(2-(methylthio)acetamido)-3,4-dihydro-2H-benzo[e][1,2]oxaborinine-8-carboxylic acid]",Y (key: X: MIC of less than 1 ng/mL; Y: MIC of 1 μg/mL to 10 μg/mL; Z: MIC of greater than 10 μg/mL),< 1,X (MIC of less than 1 μg/mL),> 10,Y (MIC of 1 μg/mL to 10 μg/mL),Y (MIC of 1 μg/mL to 10 μg/mL),Z (MIC of greater than 10 μg/mL),< 1,Y (key: X: MIC of less than 1 ng/mL; Y: MIC of 1 μg/mL to 10 μg/mL; Z: MIC of greater than 10 μg/mL),X (key: X: MIC of less than 1 μg/mL; Y: MIC of 1 μg/mL to 10 μg/mL; Z: MIC of greater than 10 μg/mL),X (MIC of less than 1 μg/mL),Y (MIC of 1 μg/mL to 10 μg/mL),Y (MIC of 1 μg/mL to 10 μg/mL),> 10,Y (MIC of 1 μg/mL to 10 μg/mL),< 1,X (key: X: MIC of less than 1 μg/mL; Y: MIC of 1 μg/mL to 10 μg/mL; Z: MIC of greater than 10 μg/mL),> 10,X (MIC of less than 1 μg/mL),Y (key: X: MIC of less than 1 ng/mL; Y: MIC of 1 μg/mL to 10 μg/mL; Z: MIC of greater than 10 μg/mL),–
"COc1ccc2c(c1C(=O)O)OB(O)[C@@H](NC(=O)c1nnc(N)s1)C2 [Compound 28, (R)-3-(5-amino-1,3,4-thiadiazole-2-carboxamido)-2-hydroxy-7-methoxy-3,4-dihydro-2H-benzo[e][1,2]oxaborinine-8-carboxylic acid]",Y (key: X: MIC of less than 1 ng/mL; Y: MIC of 1 μg/mL to 10 μg/mL; Z: MIC of greater than 10 μg/mL),< 1,Y (MIC of 1 μg/mL to 10 μg/mL),1 to 10,Y (MIC of 1 μg/mL to 10 μg/mL),X (MIC of less than 1 μg/mL),Z (MIC of greater than 10 μg/mL),< 1,–,X (key: X: MIC of less than 1 μg/mL; Y: MIC of 1 μg/mL to 10 μg/mL; Z: MIC of greater than 10 μg/mL),Y (MIC of 1 μg/mL to 10 μg/mL),Y (MIC of 1 μg/mL to 10 μg/mL),Y (MIC of 1 μg/mL to 10 μg/mL),1 to 10,Y (MIC of 1 μg/mL to 10 μg/mL),< 1,X (key: X: MIC of less than 1 μg/mL; Y: MIC of 1 μg/mL to 10 μg/mL; Z: MIC of greater than 10 μg/mL),> 10,Y (MIC of 1 μg/mL to 10 μg/mL),Y (key: X: MIC of less than 1 ng/mL; Y: MIC of 1 μg/mL to 10 μg/mL; Z: MIC of greater than 10 μg/mL),AZT MPC4 CTX-M-14 KP1005 (KP1005 (CTX-M-14) [12]): Y (MIC of 1 μg/mL to 10 μg/mL)
"CSCC(=O)N[C@H]1Cc2ccc(O)c(C(=O)O)c2OB1O [Compound 34, (R)-2,7-dihydroxy-3-(2-(methylthio)acetamido)-3,4-dihydro-2H-benzo[e][1,2]oxaborinine-8-carboxylic acid]",Y (key: X: MIC of less than 1 ng/mL; Y: MIC of 1 μg/mL to 10 μg/mL; Z: MIC of greater than 10 μg/mL),< 1,X (MIC of less than 1 μg/mL),1 to 10,Y (MIC of 1 μg/mL to 10 μg/mL),X (MIC of less than 1 μg/mL),Y (MIC of 1 μg/mL to 10 μg/mL),< 1,Y (key: X: MIC of less than 1 ng/mL; Y: MIC of 1 μg/mL to 10 μg/mL; Z: MIC of greater than 10 μg/mL),X (key: X: MIC of less than 1 μg/mL; Y: MIC of 1 μg/mL to 10 μg/mL; Z: MIC of greater than 10 μg/mL),X (MIC of less than 1 μg/mL),Y (MIC of 1 μg/mL to 10 μg/mL),Y (MIC of 1 μg/mL to 10 μg/mL),> 10,Y (MIC of 1 μg/mL to 10 μg/mL),< 1,X (key: X: MIC of less than 1 μg/mL; Y: MIC of 1 μg/mL to 10 μg/mL; Z: MIC of greater than 10 μg/mL),> 10,X (MIC of less than 1 μg/mL),Y (key: X: MIC of less than 1 ng/mL; Y: MIC of 1 μg/mL to 10 μg/mL; Z: MIC of greater than 10 μg/mL),–
